For 47 molecules, LogP results are on record in patent US8324133B2, “Fungicide 2-pyridyl-methylene-carboxamide derivatives” (Bayer Cropscience AG, priority 2005, dated 2012).

SMILES strings stand for the structures.

This data set is described as follows: logP by HPLC on reversed-phase column (C 18), EEC Directive 79/831 Annex V.A8. It counts as physicochemical. The settings on record: C 18, 40° C., 0.1% aqueous formic acid and acetonitrile gradient. As to the method:
Temperature: 40° C.; Mobile phases: 0.1% aqueous formic acid and acetonitrile; linear gradient from 10% acetonitrile to 90% acetonitrile.
Calibration was carried out using unbranched alkan-2-ones (comprising 3 to 16 carbon atoms) with known logP values (determination of the logP values by the retention times using linear interpolation between two successive alkanones).

As to `Cc1ncoc1C(=O)N(Cc1ncc(C(F)(F)F)cc1Cl)C1CC1` [Compound 20], the LogP – broadly, a log measure of how a compound divides between an organic and an aqueous phase – was determined as 2.85. With `Cc1ccoc1C(=O)N(Cc1ncc(C(F)(F)F)cc1Cl)C1CC1` [Compound 3] the figure was 3.78.

In the case of `Cn1cc(C(=O)N(Cc2cc(C(F)(F)F)cc(Cl)n2)C2CC2)c(C(F)F)n1` [Compound 37], the LogP amounted to 3.1. The result for `Cc1nc(C(F)(F)F)c(C(=O)N(C2CC2)C(C)c2ncc(C(F)(F)F)cc2Cl)s1` (centres unmarked) [Compound 30] reads 4.80.

The molecule `Cc1cc(C(=O)N(C2CC2)C(C)c2ncc(C(F)(F)F)cc2Cl)nn1C` (centres unmarked) [Compound 33] gave a LogP of 3.15. With `CCC(c1cc(C(F)(F)F)cc(Cl)n1)N(C(=O)c1c(C)nn(C)c1F)C1CC1` (centres unmarked) [Compound 47] the figure was 2.95; with `Cc1ncoc1C(=O)N(C1CC1)C(C)c1ncc(C(F)(F)F)cc1Cl` (centres unmarked) [Compound 21], 3.22; with `Cc1ccoc1C(=O)N(C1CC1)C(C)c1ncc(C(F)(F)F)cc1Cl` (centres unmarked) [Compound 4], 4.22. The result for `Cc1nc(C(=O)N(C2CC2)C(C)c2ncc(C(F)(F)F)cc2Cl)c(C)o1` (centres unmarked) [Compound 23] reads 3.46; that for `Cn1ncc(C(=O)N(Cc2ncc(C(F)(F)F)cc2Cl)C2CC2)c1Cl` [Compound 57], 3.92.

Turning to `Cc1nn(C)c(F)c1C(=O)N(C1CC1)C(C)c1ncc(C(F)(F)F)cc1Cl` (centres unmarked) [Compound 46], the LogP is on record as 3.67. With `CC(c1ncc(C(F)(F)F)cc1Cl)N(C(=O)c1sccc1I)C1CC1` (centres unmarked) [Compound 12] the figure was 5.09. For the molecule `COc1nn(C)cc1C(=O)N(Cc1ncc(C(F)(F)F)cc1Cl)C1CCCC1` [Compound 80], the LogP was 3.32. With `Cc1onc(-c2ccc(Cl)cc2)c1C(=O)N(Cc1ncc(C(F)(F)F)cc1Cl)C1CC1` [Compound 69] the figure was 4.48; with `COC(=O)C(c1ncc(C(F)(F)F)cc1Cl)N(C(=O)c1c(C)nn(C)c1F)C1CC1` (centres unmarked) [Compound 48], 2.83; with `Cc1cc(C(=O)N(C2CC2)C(C)c2ncc(C(F)(F)F)cc2Cl)no1` (centres unmarked) [Compound 65], 3.63. Molecule `CCOc1nn(C)cc1C(=O)N(Cc1ncc(C(F)(F)F)cc1Cl)C1CC1` [Compound 60] returned a LogP of 2.75. The result for `Cn1cc(C(=O)N(Cc2ncc(C(F)(F)F)cc2Cl)C2CCCC2)c(C(F)(F)F)c1` [Compound 82] reads 4.15.

With `CC(c1ncc(C(F)(F)F)cc1Cl)N(C(=O)c1cn(C)nc1C(F)F)C1CC1` (centres unmarked) [Compound 35], the LogP was determined as 3.78. For `CC(c1ncc(C(F)(F)F)cc1Cl)N(C(=O)c1ccsc1I)C1CC1` (centres unmarked) [Compound 16], the log partition coefficient (LogP) is given as 4.95. `Cc1nc(C(F)F)c(C(=O)N(Cc2ncc(C(F)(F)F)cc2Cl)C2CCCC2)s1` [Compound 81]: the LogP worked out at 4.25. With `Cc1ncc(C(=O)N(Cc2ncc(C(F)(F)F)cc2Cl)C2CC2)s1` [Compound 29] the figure was 3.15; with `Cc1nc(C(F)F)c(C(=O)N(C2CC2)C(C)c2ncc(C(F)(F)F)cc2Cl)s1` (centres unmarked) [Compound 27], 4.34. The result for `Cc1nc(C(=O)N(Cc2ncc(C(F)(F)F)cc2Cl)C2CC2)c(C)o1` [Compound 22] reads 3.11. With `COc1nn(C)cc1C(=O)N(Cc1ncc(C(F)(F)F)cc1Cl)C1CC1` [Compound 39] the figure was 2.43; with `Cn1cc(C(=O)N(Cc2ncc(C(F)(F)F)cc2Cl)C2CC2)c(C(F)(F)F)n1` [Compound 41], 3.26. Molecule `Cc1cc(C(=O)N(C2CC2)C(C)c2ncc(C(F)(F)F)cc2Cl)c(C(F)(F)F)o1` (centres unmarked) [Compound 7] came in with a LogP of 5.19. With `Cc1cc(C(=O)N(Cc2ncc(C(F)(F)F)cc2Cl)C2CC2)no1` [Compound 64] the figure was 3.32; with `CC(c1ncc(C(F)(F)F)cc1Cl)N(C(=O)c1ccco1)C1CC1` (centres unmarked) [Compound 2], 3.6.

In turn, `Cc1occc1C(=O)N(Cc1ncc(C(F)(F)F)cc1Cl)C1CC1` [Compound 8] yielded a LogP of 3. With `Cc1nc(C(F)F)c(C(=O)N(Cc2ncc(C(F)(F)F)cc2Cl)C2CC2)s1` [Compound 26] the figure was 3.41; with `Cn1cc(C(=O)N(Cc2ncc(C(F)(F)F)cc2Cl)C2CC2)c(C(F)(F)F)c1` [Compound 17], 3.55. The result for `Cc1nn(C)cc1C(=O)N(Cc1ncc(C(F)(F)F)cc1Cl)C1CC1` [Compound 55] reads 2.53; that for `O=C(c1ccsc1I)N(Cc1ncc(C(F)(F)F)cc1Cl)C1CC1` [Compound 15], 4.17. With `Cc1cc(C(=O)N(Cc2ncc(C(F)(F)F)cc2Cl)C2CC(C)CC(C)(C)C2)c(C)o1` (centres unmarked) [Compound 83], the LogP was 5.9. With `Cc1nc(C(F)(F)F)c(C(=O)N(Cc2ncc(C(F)(F)F)cc2Cl)C2CC2)s1` [Compound 25] the figure was 3.86; with `O=C(c1ccno1)N(Cc1ncc(C(F)(F)F)cc1Cl)C1CC1` [Compound 71], 3.72. With `Cn1cc(C(=O)N(Cc2ncc(C(F)(F)F)cc2Cl)C2CCCC2)c(C(F)F)n1` [Compound 79] the figure was 3.68. With `Cc1nn(C)cc1C(=O)N(C1CC1)C(C)c1ncc(C(F)(F)F)cc1Cl` (centres unmarked) [Compound 56] the figure was 2.79; with `O=C(c1ccco1)N(Cc1ncc(C(F)(F)F)cc1Cl)C1CC1` [Compound 1], 3.2. `Cn1cc(C(=O)N(Cc2ncc(C(F)(F)F)cc2Cl)C2CC2)c(I)n1` [Compound 43] returned a LogP of 2.82. With `CCn1nc(C)c(C(=O)N(Cc2ncc(C(F)(F)F)cc2Cl)C2CC2)c1F` [Compound 58], the LogP is recorded as 3.15. With `Cc1noc(C)c1C(=O)N(Cc1ncc(C(F)(F)F)cc1Cl)C1CC1` [Compound 68] the figure was 3; with `CCc1nn(C)c(F)c1C(=O)N(Cc1ncc(C(F)(F)F)cc1Cl)C1CC1` [Compound 59], 3.11; with `Cc1cc(C(=O)N(Cc2ncc(C(F)(F)F)cc2Cl)C2CC2)c(C(F)(F)F)o1` [Compound 6], 4.26. The result for `O=C(c1ccnn1-c1ccccc1)N(Cc1ncc(C(F)(F)F)cc1Cl)C1CC1` [Compound 63] reads 3.55.

`CC(c1ncc(C(F)(F)F)cc1Cl)N(C(=O)c1cn(C)nc1C(F)(F)F)C1CC1` (centres unmarked) [Compound 42] gave a LogP of 4.01.
